In brackets after ≈: the same amount, converted by molar mass.
What was measured:
Experiment in all cases: Bacteriostatic activity by the method of streaks in gelose media, minimum inhibitory concentration
Assay type in all cases: cell-based
Staphylococcus Aureus = settings: streaks from 24 hour old culture, gram + ve, read-out: Minimal inhibitory concentration Staphylococcus Aureus
Description: (§1) The bacteriostatic activity of the phenols according to the invention has been evaluated by the method of streaks in gelose media. This method comprises making increasing dilutions of the product to be tested, in nutritive geloses poured into a Petri dish.
(§2) The various bacteria to be studied are then introduced onto the geloses in parallel streaks by means of a platinum loop which has been immersed in a 24 hour old culture of each bacteria.
(§3) The activity of these compounds has been studied vis a vis two gram + ve bacteria, namely Staphylococcus Aureus and Streptococcus Pyrogenes.

Streptococcus Pyrogenes = settings: streaks from 24 hour old culture, gram + ve, read-out: Minimal inhibitory concentration Streptococcus Pyrogenes
Description: as §1, §2, §3

Escherichia Coli = settings: streaks from 24 hour old culture, read-out: Minimal inhibitory concentration Escherichia Coli
Description: as §1, §2

MIC (Staphylococcus Aureus)	MIC (Streptococcus Pyrogenes)	MIC (Escherichia Coli)	Compound
5 µg/mL	15 µg/mL	–	Cc1cc(O)c(C2CC3CCC2(C)C3(C)C)cc1Br (centres unmarked) [Example 2, 2-isobornyl-4-bromo-5-methyl-phenol]
1 µg/mL	5 µg/mL	–	CC1(C)C2CCC1(C)C(c1cc([N+](=O)[O-])ccc1O)C2 (centres unmarked) [Example 3, 2-isobornyl-4-nitrophenol]
2 µg/mL	30 µg/mL	–	CC1(C)C2CCC1(C)C(c1cc(Br)ccc1O)C2 (centres unmarked) [Example 4, 2-isobornyl-4-bromophenol]
2.5 µg/mL	5 µg/mL	–	Cc1cc(O)c(C2CC3CCC2(C)C3(C)C)cc1Cl (centres unmarked) [Example 7, 2-isobornyl-4-chloro-5-methylphenol]
7.5 µg/mL	20 µg/mL	7.5 µg/mL (≈ 28.1 µM)	Oc1ccc(Br)cc1C1CC2CCC1C2 (stereo not drawn) [Example 8, 2-exo-norbornyl-4-bromophenol]
5 µg/mL	–	10 µg/mL (≈ 44.9 µM)	Oc1ccc(Cl)cc1C1CC2CCC1C2 (stereo not drawn) [Example 10, 2-exo-norbornyl-4-chlorophenol]
5 µg/mL	20 µg/mL	–	Cc1ccc(O)c(C2CC3CC2C(C)C3(C)C)c1 (centres unmarked) [Example 13, 2-isocamphyl-4-methylphenol]
5 µg/mL	10 µg/mL	–	Cc1cc(O)c(C2CC3CCC2(C)C3(C)C)cc1C#N (centres unmarked) [Example 15, 2-isobornyl-4-cyano-5-methylphenol]
5 µg/mL	7.5 µg/mL	–	CC1(C)C2CCC1(C)C(c1cc(C#N)ccc1O)C2 (centres unmarked) [Example 16, 2-isobornyl-4-cyano phenol]

More lines, now with the values behind:

Compound	MIC (Staphylococcus Aureus)	MIC (Streptococcus Pyrogenes)	MIC (Escherichia Coli)
Cc1cc(O)c(C2CC3CCC2(C)C3(C)C)cc1[N+](=O)[O-] (centres unmarked) [Example 1, 2-isobornyl-4-nitro-5-methylphenol]	1 µg/mL	7.5 µg/mL	–
O=[N+]([O-])c1ccc(O)c(C2CC3CCC2C3)c1 (stereo not drawn) [Example 5, 2-exo-norbornyl-4-nitrophenol]	5 µg/mL	10 µg/mL	–
CC1C2CC(CC2c2cc(Br)ccc2O)C1(C)C (centres unmarked) [Example 6, 2-isocamphyl-4-bromophenol]	2.5 µg/mL	5 µg/mL	–
Cc1cc(O)c(C2CC3CCC2C3)cc1Br (stereo not drawn) [Example 9, 2-exo-norbornyl-4-bromo-5-methylphenol]	5 µg/mL	–	20 µg/mL (≈ 71.1 µM)
CC1(C)C2CCC1(C)C(c1cc(Cl)ccc1O)C2 (centres unmarked) [Example 11, 2-isobornyl-4-chlorophenol]	2.5 µg/mL	10 µg/mL	–
COc1cc(C)c(O)cc1C1CC2CCC1(C)C2(C)C (centres unmarked) [Example 12, 2-methyl-4-methoxy-5-isobornyl phenol]	5 µg/mL	–	–
COc1ccc(O)cc1C1CC2CCC1(C)C2(C)C (centres unmarked) [Example 14, 3-isobornyl-4-methoxyphenol]	5 µg/mL	10 µg/mL	–

— patent publication US4067899A, “Terpenophenols” (Societe Anonyme dite: MAR-PHA, Societe d'Etude et …, priority 1974, dated 1978)
